The test system of data set [1] is HCT116 colorectal cancer cells. The experiment in a line: Hepatocyte-cancer cell crosstalk: prodrug added to hepatocyte well, cell death in connected HCT116 well (live/dead staining). It counts as cell-based. The following applies: increasing concentrations of Tegafur (0, 100, 200, 300 and 400 uM) added to hepatocyte chamber; fluidic flow 72 hours. The procedure:
20,000 primary human hepatocytes (Lonza) (Hepatocyte plating medium for 4 hours, followed by hepatocyte maintenance medium with 0.3% (v/v) matrigel GFR for 20 hours) or HepG2 cells (to be transfected with CYP2A6 cDNA (as per vendor's recommendation)) were plated in one well of the two connected wells in their respective cell culture medium (catalog number 3386 for Transwell® plate). Prior to plating the primary human hepatocytes from Lonza, the Transwell® plate was coated with 0.1 mg/ml collagen (50 μls) ([…] Sigma-collagen I rat tail solution) (solubilized in 0.1% acetic acid in 1×PBS (v/v)) for 1 hour at 37° C. (cell culture incubator) and washed with 1×PBS. The primary human hepatocytes were sandwiched in the human hepatocyte maintenance medium with 0.3% matrigel GFR (v/v) for the next 20 hours. In the other connected well of each test unit, 20,000 HCT116 cells were plated directly on the Transwell® membrane in McCoy's 5A media. For HepG2 cells, the cells were transfected with CYP2A6 cDNA for 48 hours prior to any drug addition. On the day of drug addition, the HCT116 colorectal cancer cells were moved into hepatocyte media in order to prevent mixing of different mediums. The high-throughput microfluidic device illustrated in FIG. 5B was cleaned, assembled and sterilized via autoclaving for 60 minutes. […]

Data set [2] relates to primary human hepatocytes. The data set is described as follows: Hepatocyte-cancer cell crosstalk: viability of the hepatocytes after drug treatment. It is filed as cell-based. The following applies: Tegafur added to hepatocyte chamber; 72 hours. On the procedure:
20,000 primary human hepatocytes (Lonza) (Hepatocyte plating medium for 4 hours, followed by hepatocyte maintenance medium with 0.3% (v/v) matrigel GFR for 20 hours) or HepG2 cells (to be transfected with CYP2A6 cDNA (as per vendor's recommendation)) were plated in one well of the two connected wells in their respective cell culture medium (catalog number 3386 for Transwell® plate). Prior to plating the primary human hepatocytes from Lonza, the Transwell® plate was coated with 0.1 mg/ml collagen (50 μls) (C3867 Sigma—collagen I rat tail solution) (solubilized in 0.1% acetic acid in 1×PBS (v/v)) for 1 hour at 37° C. (cell culture incubator) and washed with 1×PBS. The primary human hepatocytes were sandwiched in the human hepatocyte maintenance medium with 0.3% matrigel GFR (v/v) for the next 20 hours.
The high-throughput microfluidic device illustrated in FIG. 5B was cleaned, assembled and sterilized via autoclaving for 60 minutes. The wells of the autoclave-sterilized high-throughput microfluidic device (with two wells connected for each test unit) were filled with 300 μLs of media and centrifuged at 40 r.c.f for 4 minutes to fill all the flow channels. […] FIG. 12A depicts how the wells are filled, and FIG. 12B illustrates a test unit of the system. […]

In data set [3] the test system is HCT116 colon cancer cells. The data set is described as follows: Staurosporine acute toxicity on HCT116 cells in connected wells of the microfluidic device (live/dead staining). It is filed as cell-based. The following applies: for cell death (live/dead staining): 24 hours. The procedure:
20,000 HCT116 cells were plated directly on the Transwell® membrane (catalog number 3386 for Transwell® plate) in McCoy's 5A media such that the connected wells preceding them were either filled with McCoy's 5A media (50 μls) alone or filled with 25 μls of 2.5 mg/ml collagen gel, with McCoy's 5A media (50 μls) above it. The arrangement is depicted in FIG. 11A, showing three pairs of connected wells (test units), where the lower well in each connected pair (test unit) has medium only, while the upper well in each test unit has HCT116 cells inside the well.
The high-throughput microfluidic device of FIG. 5B was cleaned, assembled and sterilized via autoclaving for 60 minutes. The wells of the autoclave sterilized high-throughput microfluidic device (two-well connects) were filled with 300 μLs of media and centrifuged at 40 r.c.f for 4 minutes to fill all the channels.
After 24 hours of culture, 50 μls of fresh media with different concentrations of staurosporine were added to different wells (see FIG. 11A). The device was placed on a compressed air system and the fluid was pumped via membrane flexion under a compressed air cycle of 1.5 psi (amplitude), sinusoidal wave pattern with a frequency of 0.2. The cells were imaged with live/dead staining after 24 hours to understand the diffusion characteristics of the drug and resulting cell death induced by staurosporine. […] Note that each image of the cells in a single well is divided into quadrants.

Data set [4] concerns heart, liver and lung microfluidic modules. The following applies: Skardal et al., Scientific Reports 7(1), 8837 (2017); cited from earlier work.

As for `O=c1[nH]c(=O)n(C2CCCO2)cc1F` (centres unmarked) [Tegafur], in data set [1], the “toxicity to HCT116 eGFP cells in the connected wells” value is “significant dose dependent toxicity”. Besides, in data set [2], the “propidium iodide stain in the hepatocytes” value is “slight dose dependent increase” and the “viability of hepatocytes after drug treatment” value is “high viability”.

Regarding `CN[C@@H]1C[C@H]2O[C@@](C)([C@@H]1OC)n1c3ccccc3c3c4c(c5c6ccccc6n2c5c31)C(=O)NC4` [staurosporine], the “cell death (live/dead staining)” value is recorded as “only a minor increase in cell death” in data set [3] (test units with collagen gel plug as diffusion barrier, higher concentration of staurosporine); “significant cell death” in data set [3] (without collagen gel, second image, 25 uM staurosporine); “much more cell death” in data set [3] (without collagen gel, third image, 50 uM staurosporine). The “cell death in the HCT116 cells” value in data set [3] (test units without collagen gel, 0 μM, 25 μM and 50 μM staurosporine in connected well, 24 hours of operation) was “dose-dependent cell death”.

On to bleomycin, for which the “toxicity in multi-organ system” value in data set [4] is “induce lung inflammatory factor-driven cardiotoxicity”.

(Values after patent US20210284944A1, “HIGH-THROUGHPUT MULTI-ORGAN PERFUSION MODELS” (Novartis AG, priority 2018, published 2021).)
